From patent US11046889B2, “Polymerizable compound and optically anisotropic body” (DIC Corporation, priority 2015, dated 2021)

Assay: Solubility check of 20 wt % solutions in organic solvents
Assay type: physicochemical
Design: key: A: the compound dissolves at room temperature; B: the compound does not dissolve at room temperature but dissolves when heated to 60° C.; the compound does not dissolve even when heated to 60° C
Settings: room temperature or heated to 60° C.; for Results of Solubility Chloroform: 20 wt % solution in chloroform; for Results of Solubility Cyclopentanone: 20 wt % solution in cyclopentanone; for Results of Solubility MEK: 20 wt % solution in methyl ethyl ketone (MEK); for Results of Solubility MIBK: 20 wt % solution in methyl isobutyl ketone (MIBK); for Results of Solubility Toluene: 20 wt % solution in toluene; for Results of Solubility Trichloroethane: 20 wt % solution in trichloroethane
Protocol: 20 wt % solutions of each of the compounds to be evaluated in chloroform, trichloroethane, cyclopentanone, methyl ethyl ketone (MEK), methyl isobutyl ketone (MIBK), and toluene were prepared to check the solubilities of the compound to be evaluated.

Compound | Results of Solubility Chloroform | Results of Solubility Cyclopentanone | Results of Solubility MEK | Results of Solubility MIBK | Results of Solubility Toluene | Results of Solubility Trichloroethane
C=CC(=O)OCCOCCOCCOc1ccc(C(=O)Oc2ccc(-c3ccc(CCC)cc3)cc2/C=N/Nc2nc3ccccc3s2)cc1 [Compound I-1] | A | A | A | A | A | A
C=CC(=O)OCCOCCOCCOc1ccc(OC(=O)C2CCC(C(=O)Oc3ccc(C4CCC(CCC)CC4)cc3/C=N/Nc3nc4ccccc4s3)CC2)cc1 (stereo not drawn) [Compound I-2] | A | A | A | B | A | A
C=CC(=O)OCCOCCOCCOc1ccc(OC(=O)C2CCC(C(=O)Oc3ccc(C4CCC(CCC)CC4)cc3/C=N/N(CCCCCC)c3nc4ccccc4s3)CC2)cc1 (stereo not drawn) [Compound I-3] | A | A | C | C | B | A
C=CC(=O)OCCOCCOCCOc1ccc(OC(=O)C2CCC(C(=O)Oc3ccc(C4CCC(C5CCC(CCC)CC5)CC4)cc3/C=N/N(CCCCCC)c3nc4ccccc4s3)CC2)cc1 (stereo not drawn) [Compound I-4] | A | B | C | C | B | B
C=CC(=O)OCCOCCOCCOc1ccc(OC(=O)C2CCC(COc3ccc(OCC4CCC(C(=O)Oc5ccc(OCCOCCOCCOC(=O)C=C)cc5)CC4)c(/C=N/N(CCCCCC)c4nc5ccccc5s4)c3)CC2)cc1 (stereo not drawn) [Compound I-5] | A | A | B | B | A | A
C=CC(=O)OCCCCCCOc1ccc(OC(=O)C2CCC(COc3ccc(OCC4CCC(C(=O)Oc5ccc(OCCCCCCOC(=O)C=C)cc5)CC4)c(/C=N/N(CCOCCOC)c4nc5ccccc5s4)c3)CC2)cc1 (stereo not drawn) [Compound I-6] | A | A | B | B | B | A
C=CC(=O)OCCCCCCOc1ccc(OC(=O)C2CCC(C(=O)Oc3ccc(C4CCC(CCC)CC4)cc3/C=N/N(CCOCCOC)c3nc4ccccc4s3)CC2)cc1 (stereo not drawn) [Compound I-7] | A | A | A | B | A | A
C=CC(=O)OCCCOc1ccc(OC(=O)C2CCC(COc3ccc(OCC4CCC(C(=O)Oc5ccc(OCCCOC(=O)C=C)cc5)CC4)c(/C=N/N(CCOCCOC)c4nc5ccccc5s4)c3)CC2)cc1 (stereo not drawn) [Compound I-8] | A | A | B | B | A | A
C=CC(=O)OCCCCCCOc1ccc(OC(=O)C2CCC(COc3ccc(OCC4CCC(C(=O)Oc5ccc(OCCCCCCOC(=O)C=C)cc5)CC4)c(/C=N/N(CCOCCOCCOC(=O)C=C)c4nc5ccccc5s4)c3)CC2)cc1 (stereo not drawn) [Compound I-9] | A | A | A | B | A | A
C=CC(=O)OCCCCCCOc1ccc(OC(=O)C2CCC(COc3ccc(C4CCC(CCC)CC4)cc3/C=N/N(CCOCCOC)c3nc4ccccc4s3)CC2)cc1 (stereo not drawn) [Compound I-10] | A | A | B | B | A | A
C=CC(=O)OCCCCCCOc1ccc(OC(=O)C2CCC(COc3ccc(-c4ccc(CCC)cc4)c(/C=N/N(CCOCCOC)c4nc5ccccc5s4)c3)CC2)cc1 (stereo not drawn) [Compound I-11] | A | A | B | B | A | A
C=CC(=O)OCCOCCOCCOc1ccc(OC(=O)C2CCC(C(=O)Oc3ccc(OC(=O)C4CCC(C(=O)Oc5ccc(OCCOCCOCCOC(=O)C=C)cc5)CC4)c4sc(-c5ccc([N+](=O)[O-])cc5)nc34)CC2)cc1 (stereo not drawn) [Compound I-12] | A | B | B | C | B | A
C=CC(=O)OCCOCCOc1ccc(OC(=O)C2CCC(C(=O)Oc3ccc(OC(=O)C4CCC(C(=O)Oc5ccc(OCCOCCOC(=O)C=C)cc5)CC4)c4sc(-c5cc6c(C)cc(C)cc6o5)nc34)CC2)cc1 (stereo not drawn) [Compound I-13] | A | B | C | C | B | A
C=CC(=O)OCCOCCOC(=O)C1CCC(C(=O)OC2CCC(C(=O)Oc3ccc(OC(=O)C4CCC(OC(=O)C5CCC(C(=O)OCCOCCOC(=O)C=C)CC5)CC4)c4c3SC(=C3C(=O)N(c5ccccc5)N=C3C(=O)OCC)S4)CC2)CC1 (stereo not drawn) [Compound I-14] | A | B | B | C | B | A
C=CC(=O)OCCCCOC(=O)C1CCC(C(=O)OC2CCC(C(=O)Oc3ccc(OC(=O)C4CCC(OC(=O)C5CCC(C(=O)OCCCCOC(=O)C=C)CC5)CC4)c4c3SC(=C(C#N)C(=O)OCCOCCOC(=O)C=C)S4)CC2)CC1 (stereo not drawn) [Compound I-15] | A | B | B | C | B | A
C=C(C)C(=O)OCCCCCCOc1ccc(OC(=O)C2CCC(COc3ccc(OCC4CCC(C(=O)Oc5ccc(OCCCCCCOC(=O)C(=C)C)cc5)CC4)c(/C=N/N(CCOCCOC)c4nc5ccccc5s4)c3)CC2)cc1 (stereo not drawn) [Compound I-16] | A | A | B | B | A | A
C=CC(=O)OCCCCCCOc1ccc(OC(=O)C2CCC(C(=O)Oc3ccc(C4CCC(C5CCC(CCC)CC5)CC4)cc3/C=N/N(CCOCCOC)c3nc4ccccc4s3)CC2)cc1 (stereo not drawn) [Compound I-17] | A | B | C | C | B | B
C=CC(=O)OCCCCCCOc1ccc(OC(=O)C2CCC(C(=O)Oc3ccc(OC(=O)C4CCC(C(=O)Oc5ccc(OCCCCCCOC(=O)C=C)cc5)CC4)c(/C=N/N(COCCOC)c4nc5ccccc5s4)c3)CC2)cc1 (stereo not drawn) [Compound R-1, reference compound] | A | B | C | C | B | B
C=CC(=O)OCCCCCCOc1ccc(OC(=O)C2CCC(C(=O)Oc3ccc(OC(=O)C4CCC(C(=O)Oc5ccc(OCCCCCCOC(=O)C=C)cc5)CC4)c4sc(-c5ccc([N+](=O)[O-])cc5)nc34)CC2)cc1 (stereo not drawn) [Compound R-2, reference compound] | B | C | C | C | B | B
C=CC(=O)OCCCOC(=O)C1CCC(C(=O)OC2CCC(C(=O)Oc3ccc(OC(=O)C4CCC(OC(=O)C5CCC(C(=O)OCCCOC(=O)C=C)CC5)CC4)c4c3SC(=C3C(=O)N(c5ccccc5)N=C3C(=O)OCC)S4)CC2)CC1 (stereo not drawn) [Compound R-3, reference compound] | A | C | C | C | B | B
